From patent publication US12655145B2, “P2X3 modulators” (GlaxoSmithKline Intellectual Property (No. 3) Limited, priority 2020, dated 2026)

biological target: T1, P2X3 (Homo sapiens, UniProt P56373); test: P2X3 Antagonist Assay (FLIPR calcium, Fluo-8, HEK293 cells transfected with human ion channel cDNAs, αβ-meATP stimulation); type: cell-based; conditions: HEK293, @ 1 μM, antagonist mode, αβ-meATP 3 μM, read-out: P2X3 IC50 column, given as % @ 1 μM
T1 construct: expressed in transfected cells; host or cells: HEK293
T1 sequence (P56373 1-397): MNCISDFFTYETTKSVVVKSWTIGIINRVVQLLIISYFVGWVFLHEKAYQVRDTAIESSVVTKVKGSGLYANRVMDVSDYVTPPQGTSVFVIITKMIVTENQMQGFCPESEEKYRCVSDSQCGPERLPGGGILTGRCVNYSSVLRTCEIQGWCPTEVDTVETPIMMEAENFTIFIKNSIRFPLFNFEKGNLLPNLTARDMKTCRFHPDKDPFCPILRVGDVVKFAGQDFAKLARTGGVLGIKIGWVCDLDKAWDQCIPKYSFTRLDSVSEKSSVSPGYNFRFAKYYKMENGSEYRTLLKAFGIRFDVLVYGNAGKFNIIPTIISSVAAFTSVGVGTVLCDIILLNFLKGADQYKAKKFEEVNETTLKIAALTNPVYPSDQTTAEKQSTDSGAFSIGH
Protocol: Example 59: P2X3 Antagonist Assay
HEK293 were transiently or stably transfected with human ion channel cDNAs as indicated in section 1. Stable transfectants were selected by coexpression with the antibiotic-resistance gene(s) incorporated into the expression plasmid(s). Selection pressure was maintained by including selection antibiotics in the culture medium. HEK293 cells were cultured in Dulbecco's Modified Eagle Medium/Nutrient Mixture F-12 (D-MEM/F-12) supplemented with 10% fetal bovine serum, 100 U/mL penicillin G sodium, 100 J·Lg/mL streptomycin sulfate and appropriate selection antibiotics.
The effect of each test article to act as an antagonist was evaluated. Each test article was evaluated at eight (8) concentrations (0.001, 0.003, 0.01, 0.03, 0.1, 0.3, 1 and 3 μM, n=3) with 4 replicates for each concentration. Experiments were performed with the FLIPR calcium sensitive dye kit (Fluo-8 dye, AAT, Bioquest) according to the manufacturer's instructions. • Dye-loading: Growth media will be removed and add 20 μL of Mg^++-free HBPS containing Fluo-8 for 30 min at 37° C. • Preincubation (FLIPR step 1): Adding 5× (5 μL) test, vehicle, or control article solutions in Mg^+-free HBPS to each well for 20 minutes at room temperature, protected from light. • Stimulation (FLIPR step 2): After pre-incubation, cells will be stimulated with 6× (5 μL) αβ-meATP at final concentration of 3 μM prepared in Mg^++-free HBPS. • Non-Specific Calcium Influx (FLIPR step 3): 5 minutes after stimulation solution addition, non-specific calcium influx will be activated by adding 7×(5 μL) ionomycin at a final concentration of 5 μM. Fluorescence will be recorded continuously during FLIPR steps 2 and 3. • Positive Control Antagonist: PPADS (1 mM).
Data acquisition was performed via the FLIPRControl software that is supplied with the FLIPR System (MDS-AT) and data was analyzed using Microsoft Excel2003 (Microsoft Corp., Redmond, WA).

SMILES | inhibition at 1 µM
CNC(=O)c1cc(F)c(-c2[nH]c3cc(C)ccc3c2C[C@H]2CN(C(=O)OC)CCO2)c(F)c1 [Compound A24, methyl (S)-2-((2-(2,6-difluoro-4-(methylcarbamoyl)phenyl)6-methyl-1H-indol-3-yl)methyl)morpholine-4-carboxylate] | 10%
CNC(=O)c1cc(F)c(-c2nc3cc(C)cnn3c2C[C@H]2CN(C(=O)OC)CCO2)c(F)c1 [Compound A27, methyl (S)-2-((2-(2,6-difluoro-4-(methylcarbamoyl)phenyl)-7-methylimidazo[1,2-b]pyridazin-3-yl)methyl)morpholine-4-carboxylate] | 6%
CNC(=O)c1cc(F)c(-c2c(C[C@H]3CN(C(=O)OC)CCO3)nc3nc(C)ccn23)c(F)c1 [Compound A33, methyl (S)-2-((3-(2,6-difluoro-4-(methylcarbamoyl)phenyl)-7-methylimidazo[1,2-a]pyrimidin-2-yl)methyl)morpholine-4-carboxylate] | 5%

same assay, conditions: antagonist mode, αβ-meATP 3 μM

SMILES | IC50
CNC(=O)c1ccc(-c2nc3cc(Cl)ccn3c2C[C@H]2CN(C(=O)OC)CCO2)c(C)c1 [Compound A7, methyl (S)-2-((7-chloro-2-(2-methyl-4-(methylcarbamoyl)phenyl)-imidazo[1,2-a]pyridin-3-yl)methyl)morpholine-4-carboxylate] | < 100 nM
CNC(=O)c1ccc(-c2nc3cc(C)ccn3c2C[C@H]2CN(C(=O)OC)CCO2)c(Cl)c1 [Compound A8, methyl (S)-2-((2-(2-chloro-4-(methylcarbamoyl)phenyl)-7-methyl-imidazo[1,2-a]pyridin-3-yl)methyl)morpholine-4-carboxylate] | < 100 nM
CNC(=O)c1ccc(-c2nc3cc(Cl)ccn3c2C[C@H]2CN(C(=O)OC)CCO2)c(Cl)c1 [Compound A9, methyl (S)-2-((2-(2-chloro-4-(methylcarbamoyl)phenyl)-7-chloro-imidazo[1,2-a]pyridin-3-yl)methyl)morpholine-4-carboxylate] | < 100 nM
CNC(=O)c1ccc(-c2nc3cc(C)ccn3c2C[C@H]2CN(C(=O)OC)CCO2)c(F)c1 [Compound A10, methyl (S)-2-((2-(2-fluoro-4-(methylcarbamoyl)phenyl)-7-methylimidazo[1,2-a]pyridin-3-yl)methyl)morpholine-4-carboxylate] | < 100 nM
CNC(=O)c1ccc(-c2nc3cc(Cl)ccn3c2C[C@H]2CN(C(=O)OC)CCO2)c(F)c1 [Compound A11, methyl (S)-2-((2-(2-fluoro-4-(methylcarbamoyl)phenyl)-7-chloroimidazo[1,2-a]pyridin-3-yl)methyl)morpholine-4-carboxylate] | < 100 nM
CNC(=O)c1cc(C)c(-c2nc3cc(C)ccn3c2C[C@H]2CN(C(=O)OC)CCO2)cc1F [Compound A12, methyl (S)-2-((2-(5-fluoro-2-methyl-4-(methylcarbamoyl)phenyl)-7-methylimidazo[1,2-a]pyridin-3-yl)methyl)morpholine-4-carboxylate] | < 100 nM
CNC(=O)c1cc(C)c(-c2nc3cc(Cl)ccn3c2C[C@H]2CN(C(=O)OC)CCO2)cc1F [Compound A13, methyl (S)-2-((7-chloro-2-(5-fluoro-2-methyl-4-(methylcarbamoyl)phenyl)imidazo[1,2-a]pyridin-3-yl)methyl)morpholine-4-carboxylate] | < 100 nM
CNC(=O)c1cc(F)c(-c2nc3cc(C)ccn3c2CC2CCN(C(=O)OC)CC2)c(F)c1 [Compound A20, methyl 4-((2-(2,6-difluoro-4-(methylcarbamoyl)phenyl)-7-methylimidazo[1,2-a]pyridin-3-yl)methyl)piperidine-1-carboxylate] | < 100 nM
CNC(=O)c1cc(F)c(-c2cc3cc(C)ccc3n2C[C@H]2CN(C(=O)OC)CCO2)c(F)c1 [Compound A23, methyl (S)-2-((2-(2,6-difluoro-4-(methylcarbamoyl)phenyl)-5-methyl-1H-indol-1-yl)methyl)morpholine-4-carboxylate] | 100 to 1000 nM
CNC(=O)c1cc(F)c(-c2cc3cc(C)cnc3n2C[C@H]2CN(C(=O)OC)CCO2)c(F)c1 [Compound A25, methyl (S)-2-((2-(2,6-difluoro-4-(methylcarbamoyl)phenyl)-5-methyl-1H-pyrrolo[2,3-b]pyridin-1-yl)methyl)morpholine-4-carboxylate] | > 1000 nM
CNC(=O)c1cc(F)c(-c2[nH]c3cc(C)cnc3c2C[C@H]2CN(C(=O)OC)CCO2)c(F)c1 [Compound A26, methyl (S)-2-((2-(2,6-difluoro-4-(methylcarbamoyl)phenyl)-6-methyl-1H-pyrrolo[3,2-b]pyridin-3-yl)methyl)morpholine-4-carboxylate] | > 1000 nM
CNC(=O)c1cc(F)c(-c2nc3nc(C)ccn3c2C[C@H]2CN(C(=O)OC)CCO2)c(F)c1 [Compound A28, methyl (S)-2-((2-(2,6-difluoro-4-(methylcarbamoyl)phenyl)-7-methylimidazo[1,2-a]pyrimidin-3-yl)methyl)morpholine-4-carboxylate] | < 100 nM
CNC(=O)c1cc(F)c(-c2nc3cc(C)ncn3c2C[C@H]2CN(C(=O)OC)CCO2)c(F)c1 [Compound A29, methyl (S)-2-((2-(2,6-difluoro-4-(methylcarbamoyl)phenyl)-7-methylimidazo[1,2-c]pyrimidin-3-yl)methyl)morpholine-4-carboxylate] | < 100 nM
CNC(=O)c1cc(F)c(-c2nc3cc(C)ccn3c2C[C@H]2CN(C(=O)OC)CCO2)c(OC)c1F [Compound A30, methyl (S)-2-((2-(3,6-difluoro-2-methoxy-4-(methylcarbamoyl)-phenyl)-7-methylimidazo[1,2-a]pyridin-3-yl)methyl)morpholine-4-carboxylate] | < 100 nM
CNC(=O)c1cc(F)c(-c2[nH]c3cccc(C)c3c2C[C@H]2CN(C(=O)OC)CCO2)c(F)c1 [Compound A31, methyl (S)-2-((2-(2,6-difluoro-4-(methylcarbamoyl)phenyl)-4-methyl-1H-indol-3-yl)methyl)morpholine-4-carboxylate] | > 1000 nM
CNC(=O)c1ccc(-c2nc3cc(C(F)F)ccn3c2C[C@H]2CN(C(=O)OC)CCO2)c(Cl)c1 [Compound A32, methyl (S)-2-((2-(2-chloro-4-(methylcarbamoyl)phenyl)-7-(di-fluoromethyl)imidazo[1,2-a]pyridin-3-yl)methyl)morpholine-4-carboxylate] | < 100 nM
CNC(=O)c1cc(F)c(-c2nc3n(c2C[C@H]2CN(C(=O)OC)CCO2)CCC(C)C3)c(F)c1 (stereo partly drawn) [Compound A34, methyl (2S)-2-((2-(2,6-difluoro-4-(methylcarbamoyl)phenyl)-7-methyl-5,6,7,8-tetrahydroimidazo[1,2-a]pyridin-3-yl)methyl)morpholine-4-carboxylate] | 100 to 1000 nM
CNC(=O)c1cc(F)c(-c2c(C[C@H]3CN(C(=O)OC)CCO3)nc3cc(C)ncn23)c(F)c1 [Compound A37] | 100 to 1000 nM
CNC(=O)c1cc(F)c(-c2nc3cc(Cl)ccn3c2C[C@H]2CN(C(=O)OC)CCO2)c(OC)c1F [Compound A40, methyl (S)-2-((7-chloro-2-(3,6-difluoro-2-methoxy-4-(methyl-carbamoyl)phenyl)imidazo[1,2-a]pyridin-3-yl)methyl)morpholine-4-carboxylate] | < 100 nM
CNC(=O)c1cc(F)c(-c2nc3cc(C(F)F)ccn3c2C[C@H]2CN(C(=O)OC)CCO2)c(OC)c1F [Compound A41, methyl (S)-2-((2-(3,6-difluoro-2-methoxy-4-(methylcarbamoyl)-phenyl)-7-(difluoromethyl)imidazo[1,2-a]pyridin-3-yl)methyl)morpholine-4-carboxylate] | 100 to 1000 nM
CNC(=O)c1ccc(-c2nc3cc(C(F)F)ccn3c2C[C@H]2CN(C(=O)OC)CCO2)c(F)c1 [Compound A42, methyl (S)-2-((7-(difluoromethyl)-2-(2-fluoro-4-(methylcarbamoyl)phenyl)imidazo[1,2-a]pyridin-3-yl)methyl)morpholine-4-carboxylate] | < 100 nM
CNC(=O)c1ccc(-c2nc3cc(C(F)F)ccn3c2C[C@H]2CN(C(=O)OC)CCO2)c(C)c1 [Compound A43, methyl (S)-2-((7-(difluoromethyl)-2-(2-methyl-4-(methylcarbamoyl)phenyl)imidazo[1,2-a]pyridin-3-yl)methyl)morpholine-4-carboxylate] | < 100 nM
